What was measured:
Parastagonospora nodorum = Parastagonospora nodorum (PARANO) microtiter growth inhibition assay, OD600; format: cell-based; conditions: 18° C., 15-18 days, read-out: control (growth inhibition by OD600)
Procedure: Potato dextrose (PDB) liquid medium (Difco) containing a […] (10^5 spores/ml) spore suspension was prepared. For the inhibition assay, each test compound was solved in dimethyl sulfoxide. 100 μl of the test media-solution was added to a 96-well microtiter plate, consequently, the same volume (100 μl) of spore suspension was added to the well making the final test concentrations and the plate was incubated at 18° C. for 15-18 days. The growth inhibition was evaluated by measuring the OD600. Percent inhibition was calculated with the below formula: I=([…])*100 Where T=treatment, C═control, and B=blank

Phakopsora pachyrhizi = Phakopsora pachyrhizi test in soybean, greenhouse, preventive activity; format: in vivo, Phakopsora pachyrhizi on soybean plants; conditions: 24 h, spray one day before inoculation, soybean plants, read-out: control (efficacy, disease severity rating versus untreated control)
Procedure: Compounds were dissolved in 2% dimethyl sulfoxide/acetone and then mixed with water containing emulsifier to the calibrated spray volume of 50 mL. Each spray solution was poured into a spray bottle for further application. To test the preventive activity of the compound, healthy young Soybean plants, raised in the greenhouse, were sprayed with the active compound preparation at the stated application rate inside the spray cabinets using hollow cone nozzles. One day aftertreatment, the plants were inoculated with a conidial suspension containing 2×10^5Phakopsora […]. The inoculated plants were then kept in a greenhouse chamber at 22-24° C. temperature and 80-90% relative humidity for disease expression. A visual assessment of the compound's performance was carried out by rating the disease severity (0-100% scale) on treated plants 3, 7, 10 and 15 days after application. Efficacy (% control) of the compound was calculated by comparing the disease rating in the treatment with the one of the untreated control. The sprayed plants were also assessed for plant damage by recording symptoms like necrosis, chlorosis and stunting.

SMILES | inhibition at 300 ppm (Parastagonospora nodorum) | pest or weed control at 500 ppm (Phakopsora pachyrhizi)
FC(F)(F)c1nc(-c2ccc(-n3cnc(CSc4ccccc4)c3)cc2)no1 [Compound 43, 3-(4-(4-((phenylthio)methyl)-1H-imidazol-1-yl)phenyl)-5-(trifluoromethyl)-1,2,4-oxadiazole] | ≥ 70% | –
Cc1ccc(NC(=O)Cc2cn(-c3ccc(-c4noc(C(F)(F)F)n4)cc3)cn2)cc1 [Compound 8, N-(p-tolyl)-2-(1-(4-(5-(trifluoromethyl)-1,2,4-oxadiazol-3-yl)phenyl)-1H-imidazol-4-yl)acetamide] | – | ≤ 70%
O=C(Cc1cn(-c2ccc(-c3noc(C(F)(F)F)n3)cc2)cn1)Nc1cccnc1 [Compound 13, N-(pyridin-3-yl)-2-(1-(4-(5-(trifluoromethyl)-1,2,4-oxadiazol-3-yl)phenyl)-1H-imidazol-4-yl)acetamide] | – | ≤ 70%
COc1ccc(NC(=O)Cc2cn(-c3ccc(-c4noc(C(F)(F)F)n4)cc3)cn2)cc1 [Compound 2, N-(4-methoxyphenyl)-2-(1-(4-(5-(trifluoromethyl)-1,2,4-oxadiazol-3-yl)phenyl)-1H-imidazol-4-yl)acetamide] | – | ≤ 70%
O=C(Cc1cn(-c2ccc(-c3noc(C(F)(F)F)n3)cc2)cn1)NCc1ccccc1 [Compound 4, N-benzyl-2-(1-(4-(5-(trifluoromethyl)-1,2,4-oxadiazol-3-yl)phenyl)-1H-imidazol-4-yl)acetamide] | – | ≤ 70%
Cc1ccccc1S(C)(=O)=NC(=O)c1cnn(-c2ccc(-c3noc(C(F)(F)F)n3)cc2)c1 (centres unmarked) [Compound 19, N-(methyl(oxo)(o-tolyl)-λ^6-sulfaneylidene)-1-(4-(5-(trifluoromethyl)-1,2,4-oxadiazol-3-yl)phenyl)-1H-pyrazole-4-carboxamide] | – | ≤ 70%
CS(=O)(=NC(=O)c1cnn(-c2ccc(-c3noc(C(F)(F)F)n3)cc2)c1)c1ccccc1 (centres unmarked) [Compound 22, N-(methyl(oxo)(phenyl)-λ^6-sulfaneylidene)-1-(4-(5-(trifluoromethyl)-1,2,4-oxadiazol-3-yl)phenyl)-1H-pyrazole-4-carboxamide] | – | ≤ 70%
O=C(Cc1cn(-c2ccc(-c3noc(C(F)(F)F)n3)cc2)cn1)NCc1ccccc1F [Compound 7, N-(2-fluorobenzyl)-2-(1-(4-(5-(trifluoromethyl)-1,2,4-oxadiazol-3-yl)phenyl)-1H-imidazol-4-yl)acetamide] | – | ≤ 70%
COc1cccc(NC(=O)Cc2cn(-c3ccc(-c4noc(C(F)(F)F)n4)cc3)cn2)c1 [Compound 12, N-(3-methoxyphenyl)-2-(1-(4-(5-(trifluoromethyl)-1,2,4-oxadiazol-3-yl)phenyl)-1H-imidazol-4-yl)acetamide] | – | ≤ 70%
CS(C)(=O)=NC(=O)c1ccn(-c2ccc(-c3noc(C(F)(F)F)n3)cc2)c1 [Compound 30, N-(dimethyl(oxo)-λ^6-sulfanylidene)-1-(4-(5-(trifluoromethyl)-1,2,4-oxadiazol-3-yl)phenyl)-1H-pyrrole-3-carboxamide] | ≥ 70% | ≤ 70%
O=C(Cc1cn(-c2ccc(-c3noc(C(F)(F)F)n3)cc2)cn1)Nc1ccccc1 [Compound 15, N-phenyl-2-(1-(4-(5-(trifluoromethyl)-1,2,4-oxadiazol-3-yl)phenyl)-1H-imidazol-4-yl)acetamide] | ≥ 70% | ≤ 70%
COc1ccc(CNC(=O)Cc2cn(-c3ccc(-c4noc(C(F)(F)F)n4)cc3)cn2)cc1 [Compound 5, N-(4-methoxybenzyl)-2-(1-(4-(5-(trifluoromethyl)-1,2,4-oxadiazol-3-yl)phenyl)-1H-imidazol-4-yl)acetamide] | – | ≤ 70%
O=C(Cc1cn(-c2ccc(-c3noc(C(F)(F)F)n3)cc2)cn1)N1CCCCC1 [Compound 11, 1-(piperidin-1-yl)-2-(1-(4-(5-(trifluoromethyl)-1,2,4-oxadiazol-3-yl)phenyl)-1H-imidazol-4-yl)ethan-1-one] | – | ≤ 70%
COc1ccnc(S(C)(=O)=NC(=O)c2ccn(-c3ccc(-c4noc(C(F)(F)F)n4)cc3)c2)c1 (centres unmarked) [Compound 29, N-((4-methoxypyridin-2-yl)(methyl)(oxo)-λ^6-sulfanylidene)-1-(4-(5-(trifluoromethyl)-1,2,4-oxadiazol-3-yl)phenyl)-1H-pyrrole-3-carboxamide] | ≥ 70% | ≤ 70%
COc1ccccc1S(C)(=O)=NC(=O)c1cnn(-c2ccc(-c3noc(C(F)(F)F)n3)cc2)c1 (centres unmarked) [Compound 20, N-((2-methoxyphenyl)(methyl)(oxo)-λ^6-sulfaneylidene)-1-(4-(5-(trifluoromethyl)-1,2,4-oxadiazol-3-yl)phenyl)-1H-pyrazole-4-carboxamide] | – | ≤ 70%
CS(=O)(=NC(=O)c1ccn(-c2ccc(-c3noc(C(F)(F)F)n3)cc2)c1)c1ccc(F)cc1 (centres unmarked) [Compound 27, N-((4-fluorophenyl)(methyl)(oxo)-λ^6-sulfanylidene)-1-(4-(5-(trifluoromethyl)-1,2,4-oxadiazol-3-yl)phenyl)-1H-pyrrole-3-carboxamide] | – | ≤ 70%
COCCS(=O)(=NC(=O)c1ccn(-c2ccc(-c3noc(C(F)(F)F)n3)cc2)c1)c1ccccn1 (centres unmarked) [Compound 25, N-((2-methoxyethyl)(oxo)(pyridin-2-yl)-λ^6-sulfanylidene)-1-(4-(5-(trifluoromethyl)-1,2,4-oxadiazol-3-yl)phenyl)-1H-pyrrole-3-carboxamide] | – | ≤ 70%
CS(=O)(=NC(=O)c1cnn(-c2ccc(-c3noc(C(F)(F)F)n3)cc2)c1)c1cccc(F)c1 (centres unmarked) [Compound 23, N-((3-fluorophenyl)(methyl)(oxo)-λ^6-sulfanylidene)-1-(4-(5-(trifluoromethyl)-1,2,4-oxadiazol-3-yl)phenyl)-1H-pyrazole-4-carboxamide] | – | ≤ 70%
CCOC(=O)Cc1cn(-c2ccc(-c3noc(C(F)(F)F)n3)cc2)cn1 [Compound 1, Ethyl 2-(1-(4-(5-(trifluoromethyl)-1,2,4-oxadiazol-3-yl)phenyl)-1H-imidazol-4-yl)acetate] | – | ≤ 70%
O=C(Cc1cn(-c2ccc(-c3noc(C(F)(F)F)n3)cc2)cn1)Nc1ccc(Cl)cc1 [Compound 9, N-(4-chlorophenyl)-2-(1-(4-(5-(trifluoromethyl)-1,2,4-oxadiazol-3-yl)phenyl)-1H-imidazol-4-yl)acetamide] | – | ≤ 70%
COc1ccc(S(C)(=O)=NC(=O)c2cnn(-c3ccc(-c4noc(C(F)(F)F)n4)cc3)c2)cc1 (centres unmarked) [Compound 21, N-((4-methoxyphenyl)(methyl)(oxo)-λ^6-sulfaneylidene)-1-(4-(5-(trifluoromethyl)-1,2,4-oxadiazol-3-yl)phenyl)-1H-pyrazole-4-carboxamide] | – | ≤ 70%
COc1ccc(C)c(NC(=O)Cc2cn(-c3ccc(-c4noc(C(F)(F)F)n4)cc3)cn2)c1 [Compound 16, N-(5-methoxy-2-methylphenyl)-2-(1-(4-(5-(trifluoromethyl)-1,2,4-oxadiazol-3-yl)phenyl)-1H-imidazol-4-yl)acetamide] | ≥ 70% | ≤ 70%
O=C(Cc1cn(-c2ccc(-c3noc(C(F)(F)F)n3)cc2)cn1)N1CCCC1 [Compound 3, 1-(pyrrolidin-1-yl)-2-(1-(4-(5-(trifluoromethyl)-1,2,4-oxadiazol-3-yl)phenyl)-1H-imidazol-4-yl)ethan-1-one] | ≥ 70% | ≤ 70%
O=C(Cc1cn(-c2ccc(-c3noc(C(F)(F)F)n3)cc2)cn1)Nc1ccccc1Br [Compound 14, N-(2-bromophenyl)-2-(1-(4-(5-(trifluoromethyl)-1,2,4-oxadiazol-3-yl)phenyl)-1H-imidazol-4-yl)acetamide] | – | ≤ 70%
O=C(Cc1cn(-c2ccc(-c3noc(C(F)(F)F)n3)cc2)cn1)NCc1ccc(F)cc1 [Compound 6, N-(4-fluorobenzyl)-2-(1-(4-(5-(trifluoromethyl)-1,2,4-oxadiazol-3-yl)phenyl)-1H-imidazol-4-yl)acetamide] | ≥ 70% | ≤ 70%
Cc1cccc(S(C)(=O)=NC(=O)c2ccn(-c3ccc(-c4noc(C(F)(F)F)n4)cc3)c2)c1 (centres unmarked) [Compound 24, N-(methyl(oxo)(m-tolyl)-λ^6-sulfanylidene)-1-(4-(5-(trifluoromethyl)-1,2,4-oxadiazol-3-yl)phenyl)-1H-pyrrole-3-carboxamide] | ≥ 70% | –
COc1cc(F)ccc1NC(=O)Cc1cn(-c2ccc(-c3noc(C(F)(F)F)n3)cc2)cn1 [Compound 17, N-(4-fluoro-2-methoxyphenyl)-2-(1-(4-(5-(trifluoromethyl)-1,2,4-oxadiazol-3-yl)phenyl)-1H-imidazol-4-yl)acetamide] | ≥ 70% | ≤ 70%
O=C(Cc1cn(-c2ccc(-c3noc(C(F)(F)F)n3)cc2)cn1)Nc1cccc(F)c1 [Compound 10, N-(3-fluorophenyl)-2-(1-(4-(5-(trifluoromethyl)-1,2,4-oxadiazol-3-yl)phenyl)-1H-imidazol-4-yl)acetamide] | – | ≤ 70%

Source: US20220348567A1, “NOVEL OXADIAZOLE COMPOUNDS CONTAINING 5- MEMBERED HETEROAROMATIC RING FOR CONTROLLING OR PREVENTING PHYTOPATHOGENIC FUNGI” (PI INDUSTRIES LTD., priority 2019, published 2022)
